Where two headings read alike, the source gives them in different places.

The subject of assay [1] is HSV-1 Strain F. Kind of assay: Viral qPCR assay, HSV-1 in MRC5 cells. The format is cell-based, Herpes Simplex Virus type 1. The following applies: ~72 hrs, read-out: HSV1 MRC5 Cell (EC50). As to the method: (§1) MRCS cells, Vero cells, and MeWo cells were obtained from ATCC and were maintained at 37° C./5% CO2/90% relative humidity in Minimal Essential Medium with 10% fetal bovine serum, […] L-glutamine, 100 units/ml penicillin and 100 ug/ml streptomycin. Assay plates were prepared by dispensing compounds dissolved in DMSO into wells of 384 well collagen-coated plates using an ECHO acoustic dispenser. Each compound was tested in a 10-point, serial 3-fold dilution. Controls included uninfected cells and infected cells treated only with DMSO. Assays were initiated by mixing selected cells, in suspension, with virus, and dispensing 50 μl/well infected cells to pre-plated compounds. Plates were incubated at 37° C./5% CO2/90% relative humidity for ˜72 hrs to permit genomic replication, and infected cells were lysed by the addition of an equal volume of lysis buffer (10 mM Tris-HCl, pH8, 50 mM KCl, 2 mM MgCl2, 0.45% NP-40, 0.45% Tween-20, and 100 μg/ml proteinase K). An aliquot of the lysate was transferred to a 384-well PCR plate and incubated at 56° C. for 1 hour and then at 95° C. for 10 min. Levels of a viral gene and of the cellular control, PPIA (Thermo Fisher Assay ID=Hs04194521_s1), were measured in separate 10 μL qPCR assays using TaqMan® Gene Expression Master Mix (Applied Biosystems), and an 7900HT Fast Real-Time PCR System with 384-Well Block Module. 7-point, serial 10-fold dilutions of a plasmid standard were run on each plate to generate a standard curve, and genome copies numbers were calculated by plotting experimental Ct onto linear regression of the standard curve. Viral genome copy numbers were normalized by cellular control copy number, and compound effects were normalized to the window defined by the controls. Calculated % effects were fit using a 4-parameter algorithm, and EC50 was reported.
as §1, with “gene” for “gene and of the cellular control, PPIA (Thermo Fisher Assay ID=Hs04194521_s1),”, “in” for “in separate”, “Compound effects on viral” for “Viral”, “number” for “numbers were normalized by cellular control copy number, and compound effects”
(§2) VZV: Strain Street was maintained as an infected cell stock in MRC-5 cells. It was assayed in MeWo or MRCS cells and was used at 0.04-0.1 pfu/cell. The assays were performed in growth medium. Primer-probe set was Thermo Fisher Assay ID=AIPAEXQ. HSV-1: Strain F Street was assayed in Vero or MRCS cells and was used at 0.0005-0.004 pfu/cell in growth medium. Primer-probe set was Thermo Fisher Assay ID=AIBJZIB

The subject of assay [2] is HSV2. The experiment in a line: Viral qPCR assay, HSV2 in MRC5 cells. The format is cell-based, Herpes Simplex Virus type 2. The following applies: ~72 hrs, read-out: HSV2 MRC5 Cell (EC50). As to the method: as §1
as §1, with “gene” for “gene and of the cellular control, PPIA (Thermo Fisher Assay ID=Hs04194521_s1),”, “in” for “in separate”, “Compound effects on viral” for “Viral”, “number” for “numbers were normalized by cellular control copy number, and compound effects”

Assay [3] deals with T1, Human cytomegalovirus DNA polymerase (Human cytomegalovirus, UniProt P08546).
T1 construct: made in house; host or cells: SF21 insect cells (baculovirus vector)
The experiment in a line: HCMV polymerase assay (AlphaLISA). Type of assay: biochemical. To be noted: HCMV DNA polymerase 0.2 nM, 60 minutes at 37° C.; read-out: CMV (IC50). The procedure:
Human cytomegalovirus and varicella zoster virus DNA polymerases were expressed via baculovirus vector in SF21 cells and purified. Heterodimeric nucleic acid substrate used in the herpesvirus polymerase reactions was generated by annealing a 59-mer template to a 17-mer digoxigenin-labeled primer. Polymerase (HCMV final concentration of 0.2 nM; VZV final concentration of 0.4 nM) was combined with an inhibitor compound or DMSO in assay buffer (10 mM HEPES, pH 7.5, 25 mM KCl, 25 mM NaCl, 5 mM MgCl2, 5% glycerol, 0.67 mg/ml bovine serum albuminutes, and 1 mM tris(2-carboxyethyl)phosphine), and this mixture was pre-incubated for 30 minutes at room temperature in 384-well microtiter plates. The polymerization reaction was initiated by the addition of template/primer substrate (final concentration: 1.6 nM), and dNTPs (final concentration: 24 nM dCTP, 24 nMdGTP, 16 nM dATP, 16 nM dTTP, and 0.8 nM biotin-dUTP). After 60 minutes incubation at 37° C., reactions were terminated with quench buffer (25 mM HEPES pH 7.5, 100 mM NaCl, 0.25% Tween-20, 12 mM EDTA, and 1 mg/ml bovine serum albumin). Incorporation of biotinylated UTP was detected with 2.5-ug/ml anti-DIG AlphaLISA acceptor beads and 5-10 ug/ml streptavidin AlphaLISA donor beads (Perkin Elmer). Compound effects were normalized to the window defined by the controls (DMSO only and pre-quenched wells) and were fit using a 4-parameter algorithm to report an IC50.

Assay [4] concerns VZV. The experiment in a line: Viral qPCR assay, VZV in MRC5 cells. The format is cell-based, varicella zoster virus. The following applies: ~72 hrs, read-out: VZV MRC5 Cell (IC50). As to the method:
as §1
as §1, with “gene” for “gene and of the cellular control, PPIA (Thermo Fisher Assay ID=Hs04194521_s1),”, “in” for “in separate”, “Compound effects on viral” for “Viral”, “number” for “numbers were normalized by cellular control copy number, and compound effects”
as §2

The test system of assay [5] is HCMV Strain AD169. Kind of assay: Viral qPCR assay, HCMV in MRC-5 cells. The following applies: read-out: CMV MRC5 Cell (EC50). The format is cell-based, Human cytomegalovirus. As to the method: as §1
as §1, with “gene” for “gene and of the cellular control, PPIA (Thermo Fisher Assay ID=Hs04194521_s1),”, “in” for “in separate”, “Compound effects on viral” for “Viral”, “number” for “numbers were normalized by cellular control copy number, and compound effects”
HCMV: Strain AD169 Street was assayed in MRC-5 cells and was used at 0.05-0.1 pfu/cell. The assays were performed in either growth media or in the same media with 50% fetal bovine serum. Primer-probe set was Thermo Fisher Assay ID=AIFATFK.

Setting [6] is: Human betaherpesvirus 5, AD169, MRC5, 72 h.

T1 sequence (P08546 whole entry): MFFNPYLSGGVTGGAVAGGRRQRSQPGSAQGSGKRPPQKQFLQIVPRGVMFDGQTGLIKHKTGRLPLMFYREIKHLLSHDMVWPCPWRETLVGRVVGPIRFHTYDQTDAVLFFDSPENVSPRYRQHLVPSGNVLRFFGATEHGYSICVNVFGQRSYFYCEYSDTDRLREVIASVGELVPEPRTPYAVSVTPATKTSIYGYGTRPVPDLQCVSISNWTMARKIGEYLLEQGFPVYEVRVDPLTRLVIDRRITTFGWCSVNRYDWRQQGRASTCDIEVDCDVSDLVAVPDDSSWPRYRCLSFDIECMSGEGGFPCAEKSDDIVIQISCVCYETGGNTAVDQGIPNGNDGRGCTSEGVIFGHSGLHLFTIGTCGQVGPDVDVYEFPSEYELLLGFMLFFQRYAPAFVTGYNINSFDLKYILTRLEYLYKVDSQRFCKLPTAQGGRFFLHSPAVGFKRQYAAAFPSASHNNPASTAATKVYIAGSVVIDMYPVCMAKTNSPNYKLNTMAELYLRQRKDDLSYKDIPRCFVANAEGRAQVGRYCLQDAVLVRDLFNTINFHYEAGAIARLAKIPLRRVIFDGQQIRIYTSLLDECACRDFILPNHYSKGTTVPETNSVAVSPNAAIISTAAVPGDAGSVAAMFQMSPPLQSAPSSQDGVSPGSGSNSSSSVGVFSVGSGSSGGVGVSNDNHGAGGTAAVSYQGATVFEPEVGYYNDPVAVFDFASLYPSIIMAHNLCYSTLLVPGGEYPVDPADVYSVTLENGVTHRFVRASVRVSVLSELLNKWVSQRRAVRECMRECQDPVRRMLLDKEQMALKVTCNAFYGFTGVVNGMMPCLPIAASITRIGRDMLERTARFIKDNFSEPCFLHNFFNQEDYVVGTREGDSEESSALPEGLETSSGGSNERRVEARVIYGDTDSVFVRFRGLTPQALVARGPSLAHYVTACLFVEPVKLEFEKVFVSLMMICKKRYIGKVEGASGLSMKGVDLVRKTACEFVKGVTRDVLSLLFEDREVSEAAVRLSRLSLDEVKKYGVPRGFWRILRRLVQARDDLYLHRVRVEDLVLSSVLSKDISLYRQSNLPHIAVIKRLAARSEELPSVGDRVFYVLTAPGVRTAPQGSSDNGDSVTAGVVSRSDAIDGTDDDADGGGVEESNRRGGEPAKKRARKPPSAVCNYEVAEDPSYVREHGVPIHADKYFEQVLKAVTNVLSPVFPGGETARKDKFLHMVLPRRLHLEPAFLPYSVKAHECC

In the case of `CC(C1CCC(=O)N1)N1Cc2c(C(=O)NCc3ccc(Cl)cc3)nn(C)c2C1` (single isomer, unassigned) [Compound 1], the EC50 in assay [1] is 9980 nM; in assay [2] it was 6740 nM; in assay [5] (MRC5 cells, ~72 hrs), 4480 nM. Further, the concentration for half-maximal inhibition (IC50) came to 235 nM in assay [3] and 7530 nM in assay [4].
For `CC(C1CCC(=O)N1)N1Cc2c(C(=O)NCc3ccc(Cl)cc3)nn(C)c2C1` (single isomer, unassigned) [Compound 2], the 50% effective concentration (EC50) stood at 270 nM in assay [1]; 119 nM in assay [2]; 176 nM in assay [5] (MRC5 cells, ~72 hrs). In addition, the IC50 came out at 9.81 nM in assay [3] and 182 nM in assay [4].
For the molecule `CC([C@@H]1CCC(=O)N1)N1Cc2c(C(=O)NCc3ccc(Cl)cc3)nn(-c3nccs3)c2C1` (single isomer, unassigned) [Compound 5], the half-maximal effective concentration (EC50) was found to be 248 nM in assay [1]; 248 nM in assay [2]; 392 nM in assay [5] (MRC5 cells, ~72 hrs). In addition, the results for the IC50 in assay [3] and in assay [4] were 5.3 nM and 405 nM, respectively.
Take `O=C1CC[C@H](CN2Cc3c(C(=O)NCc4ccc(Cl)cc4)nn(C4CCOC4)c3C2)N1` (single isomer, unassigned) [Compound 33]: the EC50 is 1560 nM in assay [1]; 1410 nM in assay [2]; 628 nM in assay [5] (MRC5 cells, ~72 hrs). Also, the IC50 in assay [3] was 52.5 nM; in assay [4] it was 1960 nM.
For the molecule `CC([C@@H]1CCC(=O)N1)N1Cc2c(C(=O)NCc3ccc(Cl)cc3)nn(C(F)F)c2C1` (some centres unmarked) [Compound 71], the values for the EC50 in assay [1] and in assay [2] were 2080 nM and 1080 nM, respectively. Moreover, the IC50 in assay [3] amounted to 76.2 nM; in assay [4] it was 1210 nM.
In the case of `CC(C1CC(F)C(=O)N1)N1Cc2c(C(=O)NCc3ccc(Cl)cc3)nn(C)c2C1` (centres unmarked) [Compound 74], the IC50 in assay [3] came to 815 nM. Also, the EC50 in assay [5] (MRC5 cells, ~72 hrs) was determined as 28100 nM.
As for `CC(C1CC(F)C(=O)N1)N1Cc2c(C(=O)NCc3ccc(Cl)cc3)nn(C)c2C1` (centres unmarked) [Compound 75], the concentration for half-maximal inhibition (IC50) in assay [3] was found to be 70.9 nM. For the same molecule, in assay [5] (MRC5 cells, ~72 hrs), the concentration giving a half-maximal response (EC50) is 2020 nM.
Regarding `Cn1nc(C(=O)NCc2ccc(Cl)cc2)c2c1CN(C[C@H]1CC(F)(F)C(=O)N1)C2` [Compound 81], in assay [3], the IC50 was determined as 557 nM. Moreover, the EC50 in assay [5] (setting [6]) amounted to 1280 nM.
Consider `CC(C1CC(F)(F)C(=O)N1)N1Cc2c(C(=O)NCc3ccc(Cl)cc3)nn(C)c2C1` (centres unmarked) [Compound 84], for which, in assay [3], the IC50 is 13300 nM. The EC50 in assay [5] (MRC5 cells, ~72 hrs) is 40000 nM.
For `CC(C1CC(F)(F)C(=O)N1)N1Cc2c(C(=O)NCc3ccc(Cl)cc3)nn(C)c2C1` (centres unmarked) [Compound 85], the IC50 in assay [3] stood at 1050 nM. Also, the EC50 in assay [5] (MRC5 cells, ~72 hrs) stood at 3360 nM.
On the same counts, the results for `Cn1nc(C(=O)NCc2ccc(Cl)cc2)c2c1CN(CC1CCC(=O)N1)C2` (centres unmarked) [Compound 88] are 13300 nM and 33000 nM.
For `CCC(C1CCC(=O)N1)N1Cc2c(C(=O)NCc3ccc(Cl)cc3)nn(C)c2C1` (centres unmarked) [Compound 91], in assay [3], the IC50 is 8610 nM. Besides, the EC50 in assay [5] (MRC5 cells, ~72 hrs) turned out to be 99000 nM.
With `CCC(C1CCC(=O)N1)N1Cc2c(C(=O)NCc3ccc(Cl)cc3)nn(C)c2C1` (centres unmarked) [Compound 92], the half-maximal inhibitory concentration (IC50) in assay [3] turned out to be 1180 nM. Also, the concentration giving a half-maximal response (EC50) in assay [5] (MRC5 cells, ~72 hrs) came out at 65900 nM.
Consider `C=CC[C@]1(CN2Cc3c(C(=O)NCc4ccc(Cl)cc4)nn(C)c3C2)CCC(=O)N1` [Compound 96], for which, in assay [3], the IC50 was found to be 144 nM. In addition, in assay [5] (setting [6]), the concentration giving a half-maximal response (EC50) is 1120 nM.
Taken in the same sequence, the figures for `O=C(NCc1ccc(Cl)cc1)c1nn(C(F)F)c2c1CN(CC13CC(C1)C(=O)N3)C2` [Compound 98] were 534 nM and 1400 nM.
Consider `CC1c2c(c(C(=O)NCc3ccc(Cl)cc3)nn2C)CN1C(C)C1CCC(=O)N1` (centres unmarked) [Compound 110], for which the concentration for half-maximal inhibition (IC50) in assay [3] worked out at 2900 nM. Moreover, in assay [5] (MRC5 cells, ~72 hrs), the concentration giving a half-maximal response (EC50) was 22200 nM.
Regarding `CC(C)[C@H]1c2c(c(C(=O)NCc3ccc(Cl)cc3)nn2C)CN1C[C@H]1CCC(=O)N1` [Compound 113], in assay [3], the 50% inhibitory concentration (IC50) was found to be 188 nM. Besides, in assay [5] (MRC5 cells, ~72 hrs), the 50% effective concentration (EC50) turned out to be 4830 nM.
For the molecule `CC(C)[C@@H]1c2c(c(C(=O)NCc3ccc(Cl)cc3)nn2C)CN1C[C@@H]1CCC(=O)N1` [Compound 114], the IC50 in assay [3] turned out to be 77.6 nM. Moreover, the EC50 in assay [5] (setting [6]) was 1100 nM.

These data come from US20240059693A1, “FUSED BICYCLIC PYRAZOLE DERIVATIVES AND METHODS OF USE THEREOF FOR THE TREATMENT OF HERPESVIRUSES” (Merck Sharp & Dohme LLC, priority 2020, published 2024).
